Data published in US20250186450A1, “COMBINATION THERAPY COMPRISING DGK INHIBITORS and PD-1/PD-L1 INHIBITORS” (Incyte Corporation, priority 2023, published 2025).
“Also recorded” adds a separate entry of the source.

Tests used:
DGKζ = DGKζ (Homo sapiens (Human), UniProt Q13574); assay: In vitro DGKζ inhibition assay (ADP-Glo); type: biochemical; details: 0.4 nM DGKζ, 30 μM ATP, 20 μM DLG
Description: (§1) The DGKα and DGKζ biochemical reactions were performed using His-tagged human recombinant enzymes (Signal Chem, DGKα, #D21-10BH; DGKζ, #D30-10H)) and DLG (Dilauroyl-sn-glycerol) lipid substrate (Signal Chem, #D430-59). ADP-Glo assay was performed using ADP-Glo™ kinase Assay kit (Promega, #V9104). The reactions were carried out in assay buffer containing 40 mM Tris, pH 7.5, 0.1% CHAPS, 0.1% Prionex, 40 mM NaCl, 5 mM MgCl2, 1 mM CaCl2, and 1 mM DTT. DGKα reactions contained 0.1 nM DGKα, 50 μM ATP, and 20 μM DLG. And DGKζ reactions contained 0.4 nM DGKζ, 30 μM ATP, and 20 μM DLG.
(§2) For compound inhibition studies, 40 nL test compound in DMSO was added to wells of white polystyrene plates in 384-well (Greiner, #784075) or 1536-well format (Greiner, #782075). Compounds were added with top concentration of 2 mM with 11 point, 3-fold dilution series. Enzyme solution (contains 2×DGK enzyme concentration in 1× assay buffer) was added to the plate in 2 μL/well volume, followed by 2 μL/well of substrate solution (contains 2× concentration of ATP and DLG substrate in 1× assay buffer). Plates were then centrifuged for 1 min at 1200 RPM and sealed or lidded. For 4 μL reaction volume, test compounds were therefore diluted 100× to final top concentration of 20 μM. After 90 minute incubation, reactions were quenched by addition of 2 μL/well Promega ADP-Glo Reagent, followed by centrifugation and lidding. After 60 min incubation, 2 μL/well Promega Kinase Detection Reagent was added, plates centrifuged, and incubated for 30 min. Plates were then read using Luminescence method on BMG PHERAstar FSX plate reader. Percent inhibition was calculated and IC50s were determined using 4-parameter fit in Genedata Screener. Labcyte Echo acoustic dispenser was used for compound addition, and Formulatrix Tempest liquid handler was used for all reagent dispenses.

DGKα = DGKα (Homo sapiens (Human), UniProt P23743); assay: In vitro DGKα inhibition assay (ADP-Glo); type: biochemical; details: 0.1 nM DGKα, 50 μM ATP, 20 μM DLG
Chain of DGKα (P23743 whole entry): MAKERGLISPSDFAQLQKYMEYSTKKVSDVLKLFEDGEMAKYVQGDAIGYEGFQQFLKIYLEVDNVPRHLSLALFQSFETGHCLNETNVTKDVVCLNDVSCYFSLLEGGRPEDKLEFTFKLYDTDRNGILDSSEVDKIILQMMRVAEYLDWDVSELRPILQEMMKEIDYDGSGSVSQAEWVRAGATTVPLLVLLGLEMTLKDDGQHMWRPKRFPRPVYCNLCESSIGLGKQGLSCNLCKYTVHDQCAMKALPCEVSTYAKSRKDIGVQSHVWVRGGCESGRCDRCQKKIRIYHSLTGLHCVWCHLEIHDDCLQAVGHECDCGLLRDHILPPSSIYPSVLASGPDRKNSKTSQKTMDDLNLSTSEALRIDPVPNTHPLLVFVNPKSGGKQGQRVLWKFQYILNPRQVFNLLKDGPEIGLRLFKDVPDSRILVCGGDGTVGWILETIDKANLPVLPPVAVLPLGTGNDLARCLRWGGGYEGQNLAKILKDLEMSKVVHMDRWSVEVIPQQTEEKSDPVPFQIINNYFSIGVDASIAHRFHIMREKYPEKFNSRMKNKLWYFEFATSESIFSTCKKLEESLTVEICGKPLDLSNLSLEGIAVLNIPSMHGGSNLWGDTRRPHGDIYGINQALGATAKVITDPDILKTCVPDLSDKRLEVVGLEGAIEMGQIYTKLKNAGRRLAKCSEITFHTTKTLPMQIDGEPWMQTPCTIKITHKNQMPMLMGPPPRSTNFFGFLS
Description: as §1, §2

[1] = test system: MC38 syngeneic tumor model; assay: MC38 syngeneic tumor model, DGK inhibitor plus anti-PD-1 (RMP1-14); type: in vivo, C57Bl/6 mice; details: FIGS. 9A-9B, listed as Compound 3
Description: The in vivo effect of combining Compound 1 plus anti-PD-1 (RMP1-14, Bio X Cell) was assessed in the MC38 (CRL-1642, ATCC, Manassas, VA) syngeneic tumor model (see FIG. 3) in 6 to 8 weeks old C57Bl/6 mice (Jackson laboratories). Compound 1 was suspended in 5% N,N-dimethylacetamide (DMAC)+50 mM Citrate buffer in 0.5% methyl cellulose for oral administration and RMP1-14 was suspended in saline for intraperitoneal administration. Briefly, the left flank of the mice was shaved the day prior to subcutaneous inoculation with 2×10^6 MC38 cells suspended in PBS. On day 7, tumor dimensions were measured by Vernier calipers, and volume estimated by the formula Volume=[L (long dimension)×W^2 (short dimension)]/2. Mice were randomized into 6 groups of 10 mice of approximate mean volume (˜160 mm^3). Tumors were measured 3 times per week for the duration of the study. Starting day 7, mice were dosed with (i) vehicle; (ii) 250 μg/mouse of RMP1-14; (iii) 10 mg/kg of Compound 1; (iv) 1 mg/kg of Compound 1; (v) 10 mg/kg of Compound 1 and 250 μg/mouse of RMP1-14; or (vi) 1 mg/kg of Compound 1 and 250 μg/mouse of RMP1-14. Compound 1 was administered orally once daily (QD) for 12 days, while RMP1-14 was dosed every 5 days (for a total of 3 doses).
The in vivo effect of combining Compound 2 plus anti-PD-1 (RMP1-14, Bio X Cell) was assessed in the MC38 (CRL-1642, ATCC, Manassas, VA) syngeneic tumor model in 6 to 8 weeks old C57Bl/6 mice (Jackson laboratories). Compound 2 was suspended in 5% N,N-dimethylacetamide (DMAC)+50 mM Citrate buffer in 0.5% methyl cellulose for oral administration and RMP1-14 was suspended in saline for intraperitoneal administration. Briefly, the left flank of the mice was shaved the day prior to subcutaneous inoculation with 2×10^6 MC38 cells suspended in PBS. On day 7, tumor dimensions were measured by Vernier calipers, and volume estimated by the formula Volume=[L (long dimension)×W^2 (short dimension)]/2. Mice were randomized into 6 groups of 10 mice of approximate mean volume (˜130 mm^3). Tumors were measured 3 times per week for the duration of the study. Starting day 7, mice were dosed with (i) vehicle; (ii) 250 μg/mouse of RMP1-14 (Anti-PD-1); (iii) 0.5 mg/kg of Compound 2 QD; (iv) 0.5 mg/kg of Compound 2 […] and 250 μg/mouse of RMP1-14; (v) 0.5 mg/kg of Compound 2 Q2D; (vi) 0.5 mg/kg of Compound 2 […] and 250 μg/mouse of RMP1-14; (vii) 1.5 mg/kg of Compound 2 QD; (viii) 1.5 mg/kg of Compound 2 QD and 250 μg/mouse of RMP1-14 (ix) 1.5 mg/kg of Compound 2 Q2D; (x) 1.5 mg/kg of Compound 2 Q2D and 250 μg/mouse of RMP1-14; (xi) 1.5 mg/kg of Compound 2 Q3D; or (xii) 1.5 mg/kg of Compound 2 Q3D and 250 μg/mouse of RMP1-14.
The in vivo effect of combining 2-(4-((2S,5R)-4-(bis(4-fluorophenyl)methyl)-2,5-dimethylpiperazin-1-yl)-1H-[1,2,4]triazolo[3,4-b]purin-1-yl)-N,N-dimethylethane-1-amine (i.e., Compound 3) plus anti-PD-1 (RMP1-14, Bio X Cell) was assessed in the MC38 (CRL-1642, ATCC, Manassas, VA) syngeneic tumor model in 6 to 8 weeks old C57Bl/6 mice (Jackson laboratories). Compound 3 was suspended in 5% N,N-dimethylacetamide (DMAC)+50 mM Citrate buffer in 0.5% methyl cellulose for oral administration and RMP1-14 was suspended in saline for intraperitoneal administration. Briefly, the left flank of the mice was shaved the day prior to subcutaneous inoculation with 2×10^6 MC38 cells suspended in PBS. On day 7, tumor dimensions were measured by Vernier calipers, and volume estimated by the formula Volume=[L (long dimension)×W^2 (short dimension)]/2. Mice were randomized into 6 groups of 10 mice of approximate mean volume (˜200 mm^3). Tumors were measured 3 times per week for the duration of the study. Starting day 7, mice were dosed with (i) vehicle; (ii) 250 μg/mouse of RMP1-14 (Anti-PD-1); (iii) 10 mg/kg of Compound 3 QD; (iv) 10 mg/kg of Compound 3 QD and 250 μg/mouse of RMP1-14; (v) 30 mg/kg of Compound 3 QD; or (vi) 30 mg/kg of Compound 3 QD and 250 μg/mouse of RMP1-14.

Chain of DGKζ (Q13574 whole entry): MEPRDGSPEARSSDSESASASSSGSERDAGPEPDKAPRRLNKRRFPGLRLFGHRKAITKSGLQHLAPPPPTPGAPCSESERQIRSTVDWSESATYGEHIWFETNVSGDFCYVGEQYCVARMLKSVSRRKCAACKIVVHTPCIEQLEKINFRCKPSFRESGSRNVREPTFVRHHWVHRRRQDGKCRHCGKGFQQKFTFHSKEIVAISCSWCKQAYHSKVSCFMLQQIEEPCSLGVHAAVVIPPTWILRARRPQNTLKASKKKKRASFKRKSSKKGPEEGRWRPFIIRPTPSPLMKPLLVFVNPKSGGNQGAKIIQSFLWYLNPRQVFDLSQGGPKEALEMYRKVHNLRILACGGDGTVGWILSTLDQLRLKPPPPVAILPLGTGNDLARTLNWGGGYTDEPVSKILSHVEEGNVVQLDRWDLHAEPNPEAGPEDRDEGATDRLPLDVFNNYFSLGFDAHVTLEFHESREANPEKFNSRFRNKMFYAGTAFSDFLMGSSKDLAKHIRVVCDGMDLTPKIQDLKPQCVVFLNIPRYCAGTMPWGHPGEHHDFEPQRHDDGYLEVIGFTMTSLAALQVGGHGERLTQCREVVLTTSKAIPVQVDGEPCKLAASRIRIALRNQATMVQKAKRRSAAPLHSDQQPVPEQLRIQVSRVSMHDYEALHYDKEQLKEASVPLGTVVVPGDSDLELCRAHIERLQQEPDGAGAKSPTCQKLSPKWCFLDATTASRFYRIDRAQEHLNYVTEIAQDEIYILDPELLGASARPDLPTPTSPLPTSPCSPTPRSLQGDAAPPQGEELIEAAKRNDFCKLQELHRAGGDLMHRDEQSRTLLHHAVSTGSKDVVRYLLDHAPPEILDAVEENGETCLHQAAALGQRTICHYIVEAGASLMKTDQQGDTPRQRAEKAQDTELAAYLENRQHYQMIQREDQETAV

IC50 (DGKζ): ≤ 20 nM | IC50 (DGKα): ≤ 20 nM
Structure (SMILES): C[C@@H]1CN(c2nc3nncn3c3c2ncn3CCN(C)C)[C@@H](C)CN1C(c1ccc(F)cc1)c1ccc(F)cc1 [Example 24, 2-(4-((2S,5R)-4-(Bis(4-fluorophenyl)methyl)-2,5-dimethylpiperazin-1-yl)-1H-[1,2,4]triazolo[3,4-b]purin-1-yl)-N,N-dimethylethane-1-amine]
TGI, combined with anti-PD-1 mAb, vs anti-PD-1 control group ([1]; 30 mg/kg Compound 3 QD and 250 μg/mouse RMP1-14): statistically significant; also recorded: significant TGI | TGI vs vehicle control group ([1]; all groups treated with Compound 3: 10 or 30 mg/kg QD, alone or with 250 μg/mouse RMP1-14): Tumor growth inhibition of Compound 3 was observed for all groups; also recorded: statistically significant TGI
